# Test results from ChEMBL document CHEMBL3085740, “Aziridines from alkenyl-β-D-galactopyranoside derivatives: Stereoselective synthesis and in vitro selective anticancer activity” (Eur J Med Chem, 2013).
# Columns and labels:
# A549 [1] = assay: Cytotoxicity against human A549 cells after 48 hrs by MTT assay; assay type: functional, cell-based; conditions: A549, 48 h
# MRC5 = assay: Cytotoxicity against human MRC5 cells after 48 hrs by MTT assay; assay type: cell-based; conditions: MRC5, 48 h
# [2] = Cytotoxicity against human MRC5 cells assessed as cell survival at 10 to 320 uM after 48 hrs by MTT assay; assay type: cell-based; conditions: read-out: Survival
# A549 [3] = assay: Cytotoxicity against human A549 cells at 300 uM after 48 hrs by MTT assay; assay type: functional
# [4] = Cytotoxicity against human MCF10 cells assessed as cell survival at 264 uM after 48 hrs by MTT assay; assay type: cell-based; conditions: read-out: Survival
# UACC-62 [5] = assay: Cytotoxicity against human UACC62 cells after 48 hrs by MTT assay; assay type: functional, cell-based; conditions: UACC-62, 48 h
# UACC-62 [6] = assay: Cytotoxicity against human UACC62 cells assessed as cell viability at 1 mM after 48 hrs by MTT assay; assay type: functional; conditions: UACC-62, 48 h, read-out: Activity
# MCF10 = assay: Cytotoxicity against human MCF10 cells after 48 hrs by MTT assay; assay type: cell-based; conditions: MCF10, 48 h
# MCF7 = assay: Cytotoxicity against human MCF7 cells after 48 hrs by MTT assay; assay type: functional, cell-based; conditions: MCF7, 48 h
# [7] = Cytotoxicity against human VH10 cells after 48 hrs by MTT assay; assay type: cell-based; conditions: VH10, 48 h
# [8] = Cytotoxicity against human VH10 cells at 1 mM after 48 hrs by MTT assay; assay type: cell-based; conditions: vh10, 48 h, 1000 µM
SMILES,IC50 (A549 [1]) [µM],IC50 (MRC5) [µM],other results
Cc1ccc(S(=O)(=O)N2C(C)C2CO[C@@H]2O[C@@H]3CO[C@H](c4ccccc4)O[C@@H]3[C@H](O)[C@H]2O)cc1 (stereo partly drawn),351,544,–
CCCCCCCCCCCCCCC(CO[C@@H]1O[C@@H]2CO[C@H](c3ccccc3)O[C@@H]2[C@H](OCc2ccccc2)[C@H]1OCc1ccccc1)(CN1CCN(CCO)CC1)NS(=O)(=O)c1ccc(C)cc1 (stereo partly drawn),15,2,–
CCCCCCCCCCCCNCC(C)(CO[C@@H]1O[C@@H]2CO[C@H](c3ccccc3)O[C@@H]2[C@H](OCc2ccccc2)[C@H]1OCc1ccccc1)NS(=O)(=O)c1ccc(C)cc1 (stereo partly drawn),492,156,–
CCCCCCCCCCCCCCC1(CO[C@@H]2O[C@@H]3CO[C@H](c4ccccc4)O[C@@H]3[C@H](OCc3ccccc3)[C@H]2OCc2ccccc2)CN1S(=O)(=O)c1ccc(C)cc1 (stereo partly drawn),1000,1000,–
CCCCCCCCCC1(CO[C@@H]2O[C@@H]3CO[C@H](c4ccccc4)O[C@@H]3[C@H](OCc3ccccc3)[C@H]2OCc2ccccc2)CN1S(=O)(=O)c1ccc(C)cc1 (stereo partly drawn),154,575,"viability at 48 h, up to 320 µM [2]: 90%; Activity (A549 [3]): 30%"
CCCC1(CO[C@@H]2O[C@@H]3CO[C@H](c4ccccc4)O[C@@H]3[C@H](OCc3ccccc3)[C@H]2OCc2ccccc2)CN1S(=O)(=O)c1ccc(C)cc1 (stereo partly drawn),579,793,–
Cc1ccc(S(=O)(=O)N2CC2(CO[C@@H]2O[C@@H]3CO[C@H](c4ccccc4)O[C@@H]3[C@H](OCc3ccccc3)[C@H]2OCc2ccccc2)c2ccccc2)cc1 (stereo partly drawn),599,570,–
Cc1ccc(S(=O)(=O)N2C(C)C2CO[C@@H]2O[C@@H]3CO[C@H](c4ccccc4)O[C@@H]3[C@H](OCc3ccccc3)[C@H]2OCc2ccccc2)cc1 (stereo partly drawn),804,> 1000,–
CCCCCCCC1C(CO[C@@H]2O[C@@H]3CO[C@H](c4ccccc4)O[C@@H]3[C@H](OCc3ccccc3)[C@H]2O)N1S(=O)(=O)c1ccc(C)cc1 (stereo partly drawn),235,> 1000,"viability at 48 h, up to 320 µM [2]: 90%"
Cc1ccc(S(=O)(=O)N2C(CO[C@@H]3O[C@@H]4CO[C@H](c5ccccc5)O[C@@H]4[C@H](OCc4ccccc4)[C@H]3OCc3ccccc3)C2(C)C)cc1 (stereo partly drawn),> 1000,> 1000,–
Cc1ccc(S(=O)(=O)N2CC2(C)CO[C@@H]2O[C@@H]3CO[C@H](c4ccccc4)O[C@@H]3[C@H](O)[C@H]2O)cc1 (stereo partly drawn),154,312,–
Cc1ccc(S(=O)(=O)N2C(CO[C@@H]3O[C@@H]4CO[C@H](c5ccccc5)O[C@@H]4[C@H](O)[C@H]3O)C2(C)C)cc1 (stereo partly drawn),389,567,–
Cc1ccc(S(=O)(=O)N2CC2CO[C@@H]2O[C@@H]3CO[C@H](c4ccccc4)O[C@@H]3[C@H](OCc3ccccc3)[C@H]2OCc2ccccc2)cc1 (stereo partly drawn),73,183,"viability at 48 h, up to 320 µM [2]: 90%"
Cc1ccc(S(=O)(=O)N2CC2(C)CO[C@@H]2O[C@@H]3CO[C@H](c4ccccc4)O[C@@H]3[C@H](OCc3ccccc3)[C@H]2OCc2ccccc2)cc1 (stereo partly drawn),153,> 1000,"viability at 48 h, 264 µM [4]: 80%; viability at 48 h, up to 320 µM [2]: 90%; Activity (A549 [3]): 30%; IC50 (UACC-62 [5]): 196 µM; viability at 1000 µM (UACC-62 [6]): 10%; IC50 (MCF10): 567 µM; IC50 (MCF7): 12 µM; IC50 [7]: > 1000 µM; Activity [8]: Non-toxic"
O=c1[nH]cc(F)c(=O)[nH]1 [FLUOROURACIL],–,–,IC50 (UACC-62 [5]): 264 µM; IC50 [7]: > 1000 µM
